According to PMC12390684 (Viruses, 2025):
Like-named read-outs stand apart in the source and are kept apart here.

Assays:
[1] = biological target: T1, IN-GCN2 interaction (6xHis-IN / GST-GCN2) (UniProt P04585+Q9P2K8); experiment: biochemical; format: binding, HIV-1 IN; human GCN2; conditions: for IC50: IC50, inhibition of IN-GCN2 interaction; for IN-GCN2 interaction (%): screen, single dose 100 µM, single replicate, residual AlphaLISA signal normalized to DMSO control
[2] = Cytotoxicity (CellTiter 96 AQueous); format: cell-based; conditions: human
[3] = tested on: P4 MAGI CCR5+ cells; experiment: Cytotoxicity (CellTiter 96 AQueous); format: cell-based
[4] = biological target: T2, HIV-1 IN (Human immunodeficiency virus type 1 group M subtype B, UniProt P04585); conditions: cited from earlier work
[5] = tested on: HIV-1Laï; experiment: microbe, parasite or virus in culture; format: cell-based; conditions: for EC50: 24 h infection, read-out: EC50
[6] = biological target: T3, phosphorylation of IN by GCN2 (UniProt P04585+Q9P2K8); experiment: In vitro phosphorylation assay: phosphorylation of IN by GCN2; format: biochemical, HIV-1 IN; human GCN2; conditions: GCN2 25 nM, IN 700 nM; compound 10 µM to 4.6 nM
[7] = biological target: T2, HIV-1 IN; experiment: Strand transfer (ST) gel-based assay; format: biochemical; conditions: for apparent IC50, inhibition of ST activity, in words: 400 nM IN, 20 nM substrate, 1 h 37 °C
[8] = biological target: T4, GCN2 (Homo sapiens, UniProt Q9P2K8); experiment: In vitro phosphorylation assay: GCN2 autophosphorylation; format: biochemical; conditions: GCN2 25 nM, IN 700 nM; compound 10 µM to 4.6 nM
T4 sequence (Q9P2K8 192-1024): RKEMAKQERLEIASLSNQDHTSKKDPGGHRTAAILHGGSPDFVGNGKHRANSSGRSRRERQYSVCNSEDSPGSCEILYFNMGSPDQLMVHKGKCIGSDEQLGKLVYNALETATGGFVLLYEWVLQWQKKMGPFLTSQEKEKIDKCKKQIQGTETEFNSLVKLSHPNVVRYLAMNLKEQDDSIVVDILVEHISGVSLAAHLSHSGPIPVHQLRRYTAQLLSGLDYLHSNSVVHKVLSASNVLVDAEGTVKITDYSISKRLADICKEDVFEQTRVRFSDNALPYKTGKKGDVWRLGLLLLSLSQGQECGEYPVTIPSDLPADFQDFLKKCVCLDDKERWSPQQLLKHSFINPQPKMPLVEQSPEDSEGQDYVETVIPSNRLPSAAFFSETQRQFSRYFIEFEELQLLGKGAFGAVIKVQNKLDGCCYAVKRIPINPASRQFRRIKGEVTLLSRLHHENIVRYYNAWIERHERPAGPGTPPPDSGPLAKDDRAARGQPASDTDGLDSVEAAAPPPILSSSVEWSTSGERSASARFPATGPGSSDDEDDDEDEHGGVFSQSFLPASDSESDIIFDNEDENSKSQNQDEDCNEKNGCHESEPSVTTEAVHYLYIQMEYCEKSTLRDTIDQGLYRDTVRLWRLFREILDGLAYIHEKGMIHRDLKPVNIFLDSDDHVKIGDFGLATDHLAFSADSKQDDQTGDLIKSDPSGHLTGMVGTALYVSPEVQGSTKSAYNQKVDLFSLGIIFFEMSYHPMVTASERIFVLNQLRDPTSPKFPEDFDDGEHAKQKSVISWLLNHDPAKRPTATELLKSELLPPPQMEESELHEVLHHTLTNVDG

[9] = biological target: T1, IN-GCN2 interaction (6xHis-IN / GST-GCN2); design: method as in earlier work; conditions: single dose 100 µM, previous data ref 26; cited from earlier work
[10] = biological target: T3, phosphorylation of IN by GCN2; design: method as in earlier work; conditions: previous study ref 26; cited from earlier work
[11] = biological target: T4, GCN2; design: method as in earlier work; conditions: previous study ref 26; cited from earlier work
[12] = biological target: GST-GCN2, active truncated human GCN2 (192-1024) with an N-terminal GST tag (human) (UniProt Q9P2K8); experiment: AlphaScreen or HTRF
[13] = SAR study, fresh dilutions from powder, at least three independent experiments
[14] = Human immunodeficiency virus 1, MAGI, 24 h
[15] = plated compounds of the screen, dose-response 100 µM to 46 nM (Figure 1B), n = 9
[16] = P4 MAGI CCR5+ cells, 24 h, read-out: CC50

With COc1cccc2c1C(=O)c1c(O)c3c(c(O)c1C2=O)CC(O)(C(=O)CO)CC3OC1CC(N2CCOCC2C#N)C(O)C(C)O1 (stereo not drawn) [Compound 1p] the IC50 [1, 13] was 61.1 µM, the CC50 ([2]; 24 h, read-out: CC50) was < 0.002 µM and the “lowest dose used, at which compound was still toxic” value ([3]; human) was “about 2 nM”.

For COc1cccc2c1C(=O)c1c(O)c3c(c(O)c1C2=O)CC(O)(C(=O)CO)CC3OC1CC(N(C)C)C(O)C(C)O1 (stereo not drawn) [Compound 1r], the IC50 [1, 13] is listed as > 100 µM, the CC50 at 24 h [2] is listed as 0.225 µM and the “inhibition of IN in vitro, in words” value [4] is listed as “micromolar inhibitors”.

For COc1cc(OC)c2c(O)c3c(c(-c4ccc5cc6c(c(O)c5c4O)C(=O)CC(C)(O)C6)c2c1)CC(C)OC3C (stereo not drawn) [Compound 2b, Karwinskia toxin T-544], the CC50 at 24 h ([2]; 24 h, read-out: CC50) is listed as > 5 µM, the IC50 ([4]; read-out: IC50, inhibition of both 3′-P and ST) is listed as 21 µM and the EC50 [5, 14] is listed as > 5 µM.

For CCC1(O)CC(OC2CC(N(C)C)C(OC3CC(O)C(OC4CCC(=O)C(C)O4)C(C)O3)C(C)O2)c2c(cc3c(c2O)C(=O)c2c(O)ccc(O)c2C3=O)C1C(=O)OC (stereo not drawn) [NSC18334, cinerubin A], the “IN-GCN2 interaction (%)” value [1] was 5.47%, the “inhibition of IN phosphorylation, in words” value [6] was “full inhibition” and the “apparent IC50, inhibition of ST activity, in words” value [7] was “low-micromolar”. The CC50 ([2]; 24 h, read-out: CC50) was > 5 µM, the EC50 [5, 14] was 0.79 µM and the “effect on GCN2 autophosphorylation, in words” value [8] was “inhibited GCN2 autophosphorylation”.

In the case of COc1cccc2c1C(=O)c1c(O)c3c(c(O)c1C2=O)C[C@@](O)(C(C)=O)C[C@@H]3O[C@H]1C[C@H](N)[C@H](O)[C@H](C)O1 [NSC82151], the “IN-GCN2 interaction (%)” value [1] is listed as 50.79% and the “inhibition of IN-GCN2 interaction” value [9] is listed as “around 70%”.

With CC(=O)OC(C)C1C2=C(C(=O)CC1(C)O)C(=O)c1c(ccc(-c3ccc4c(c3O)C(=O)C3=C(C4=O)C(C(C)OC(C)=O)C(C)(O)CC3=O)c1O)C2=O (stereo not drawn) [NSC248605, Julimycin B2] the IC50 [1, 15] was 30 µM, the “IN-GCN2 interaction (%)” value [1] was 6.97% and the CC50 at 24 h [2, 16] was > 5 µM. For the same molecule, the IC50 ([4]; read-out: IC50, non-selective inhibition of IN activities) was 140 µM, the “effect on HIV replication, in words” value [5] was “anti-” and the EC50 ([5]; Human immunodeficiency virus 1, MAGI) was 0.167 µM.

For CC(=O)[C@]1(O)Cc2c(O)c3c(c(O)c2[C@@H](O[C@H]2C[C@H](N)[C@H](O)[C@H](C)O2)C1)C(=O)c1ccccc1C3=O [NSC256439], the “inhibition of IN-GCN2 interaction” value [9] is given as “around 70%”.

For O=C1c2c(O)ccc(O)c2C(=O)c2c(NCCNCCO)ccc(NCCNCCO)c21 [NSC279836, mitoxantrone, reference compound], the IC50 [1, 13] is listed as 2.4 µM, the “apparent IC50, inhibition of IN phosphorylation” value [10] is listed as “low micromolar range” and the CC50 at 24 h [2] is listed as > 5 µM. The “concentration up to which GCN2 autophosphorylation was not affected” value [11] was 300 µM.

For CC1Oc2cc3c(-c4c(O)cc(O)c5c(O)c6c(cc45)OC(C)C(C)C6=O)c(O)cc(O)c3c(O)c2C(=O)C1C (stereo not drawn) [NSC345647, chaetochromin], the IC50 [1, 15] was 5.2 µM, the “IN-GCN2 interaction (%)” value [1] was 6.36% and the “inhibition of IN phosphorylation, in words” value [6] was “full inhibition”. For the same molecule, the “apparent IC50, inhibition of ST activity, in words” value [7] was “mid-nanomolar concentration range”, the CC50 at 24 h ([2]; 24 h, read-out: CC50) was > 5 µM and the “effect on HIV replication, in words” value [5] was “inactive”. The EC50 [5] was > 5 µM and the “effect on GCN2 autophosphorylation, in words” value [8] was “inhibited GCN2 autophosphorylation”.

For COc1cccc2c1C(=O)c1c(O)c3c(c(O)c1C2=O)C[C@@](O)(C(=O)CO)C[C@@H]3O[C@H]1C[C@H](N2CCOCC2)[C@H](O)[C@H](C)O1 [NSC354646, reference compound], the “inhibition of IN in vitro, in words” value [4] is listed as “micromolar inhibitors”.

For COc1cc2c(cc3c4c(cc5c(c42)OCO5)CCN3C)c(OC)c1OC [NSC785155], the IC50 [1, 13] was 5.6 µM, the IC50 [1, 15] was 14.5 µM and the “IN-GCN2 interaction (%)” value [1] was 8.90%. The “inhibition of IN phosphorylation, in words” value [6] was “partially inhibited”, the “inhibition of ST activity, in words” value ([7]; 111 µM to 51 nM) was “unable to fully inhibit ST even at 111 µM” and the CC50 at 24 h [2, 16] was > 5 µM. For the same molecule, the EC50 [5, 14] was > 5 µM and the “effect on GCN2 autophosphorylation, in words” value [8] was “limited impact”.

With COc1cc2c3c(c1O)-c1cc(N(Cc4ccccc4)Cc4ccccc4)ccc1CC3N(C)CC2 (stereo not drawn) [NSC785176] the CC50 ([3]; 24 h) was > 5 µM.

Work on “Recombinant full-length HIV-1 integrase (6xHis-IN fusion protein) (enzyme)” yielded an AlphaLISA signal (DMSO control, plate 1) [12] of 5610 Alpha counts and an AlphaLISA signal (DMSO control, plate 2) [12] of 3900 Alpha counts.
